Measured values taken from paper PMC6661809, “Lead optimization for promising monoamine oxidase inhibitor from eugenol for the treatment of neurological disorder: synthesis and in silico based study” (BMC Chemistry, 2019).

Legend:
rat MAO-A [1] = tested on: rat MAO-A; design: method as in PMID 28771213; conditions: Table 1, literature overview; cited from earlier work
rat MAO-B [2] = tested on: rat MAO-B; design: method as in PMID 28771213; conditions: Table 1, literature overview; cited from earlier work
Swiss mouse = tested on: Swiss mouse; design: method as in PMID 28771213; conditions: controls negative and positive (imipramine); cited from earlier work
rat MAO-A [3] = conditions: mitochondrial rat brain; cited from earlier work
rat MAO-B [4] = conditions: mitochondrial rat brain; cited from earlier work
mice [5] = tested on: mice; design: method as in PMID 21190052; conditions: administered for 14 days; cited from earlier work
mice [6] = tested on: mice; design: method as in PMID 28771213; conditions: cited from earlier work
[7] = Nitric oxide scavenging activity; conditions: Table 8, mean ± SEM, n = 3
Text: The generation of nitric oxide (NO·) on biological tissues is mediated by particular nitric oxide synthases enzyme that control the catabolism of the arginine to citrulline via creation of NO through a five electron oxidative reaction. At the physiological pH (7.2) in aqueous solution sodium nitroprusside decompose to produce NO·. Finally, NO· reacts with oxygen at underaerobic conditions and produces stable products (nitrate and nitrite), this amount can be determined by means of Griess reagent. The procedure for the nitric oxide scavenging activity was adopted from reports of Alam et al..

DPPH scavenging activity = conditions: Table 6, mean ± SEM, n = 3
Description: Solutions of synthesized compounds were set in ethanol/water (1:1) having 10 mM to 100 mM at a period of 10 mM. The 0.01% DPPH· stock solution was prepared in ethanol/water (1:1). Samples were prepared as 5 mL DPPH· solution was mixed with 5 mL L-ascorbic acid solution then shaken vigorously and kept in the dark. Corresponding blank sample were prepared and L-ascorbic acid was used as reference standard. […] The actual decrease in absorption induced by the test was compared with the positive controls. The IC50 values were calculated use the dose inhibition curve in linear range by plotting the extract concentration versus the corresponding scavenging effect through following equation [(ADR − APR)/AO] × 100. Where ADR is the absorbance prior to reaction and APR is the absorbance after reaction with DPPH·.

[8] = Ferric reducing antioxidant power (FRAP) assay; conditions: Table 9, mean ± SEM, n = 3;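 further: Ferrous-TPTZ reduction read as absorbance at 593 nm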
Description: The capacity of antioxidants to decrease ferric iron is measured by this method. The reaction of […] (TPTZ) and complex ferric iron yields ferrous form at low pH. […] This method was adopted from the reports of Benzie et al..

[9] = Hydrogen peroxide scavenging (H2O2) assay; conditions: Table 7, mean ± SEM, n = 3
Description: Hydrogen peroxide generally turns into water and oxygen and produces highly toxic hydroxyl radical that renders the damage to DNA and peroxidation of lipid. H2O2 scavenging ability of eugenol based derivatives was evaluated by method described by Nakano and colleagues with some alteration. The hydrogen peroxide solution (40 mM) was prepared in phosphate buffer (40 mM pH 7.4) and addition of several ranges of synthesized derivatives (05–80 μg/mL) was done into H2O2 solution (2 mL). The determination of H2O2 concentration was done by UV/Vis Epoch ELISA reader at 230 nm upon incubation of 10 min. Solution of phosphate buffer without H2O2 was noted as blank reading. The hydrogen peroxide percentage inhibition was estimated through the formula [(AH − AD)/AO] × 100, where AH is the absorbance of the control and AD is the absorbance of compounds/reference taken as 05–80 μg/mL L-ascorbic acid.

human MAO-A = biological target: human MAO-A; design: method as in PMID 21190052; conditions: competitive inhibitor; cited from earlier work
mice [10] = tested on: mice; design: method as in PMID 28771213; conditions: repeated administration, dose-dependent; cited from earlier work
MAO B = biological target: MAO B; design: method as in PMID 21190052; conditions: cited from earlier work
hMAO-B [11] = biological target: T1, hMAO-B (Homo sapiens, UniProt P27338); test: Recombinant human MAO-B inhibition screening (Amplex Red, p-tyramine); type: biochemical; conditions: p-tyramine substrate, mean SEM
T1 construct: purchased Sigma-Aldrich; host or cells: insect cells (BTI-TN-5B14) infected with recombinant baculovirus
T1 sequence (P27338 1-520): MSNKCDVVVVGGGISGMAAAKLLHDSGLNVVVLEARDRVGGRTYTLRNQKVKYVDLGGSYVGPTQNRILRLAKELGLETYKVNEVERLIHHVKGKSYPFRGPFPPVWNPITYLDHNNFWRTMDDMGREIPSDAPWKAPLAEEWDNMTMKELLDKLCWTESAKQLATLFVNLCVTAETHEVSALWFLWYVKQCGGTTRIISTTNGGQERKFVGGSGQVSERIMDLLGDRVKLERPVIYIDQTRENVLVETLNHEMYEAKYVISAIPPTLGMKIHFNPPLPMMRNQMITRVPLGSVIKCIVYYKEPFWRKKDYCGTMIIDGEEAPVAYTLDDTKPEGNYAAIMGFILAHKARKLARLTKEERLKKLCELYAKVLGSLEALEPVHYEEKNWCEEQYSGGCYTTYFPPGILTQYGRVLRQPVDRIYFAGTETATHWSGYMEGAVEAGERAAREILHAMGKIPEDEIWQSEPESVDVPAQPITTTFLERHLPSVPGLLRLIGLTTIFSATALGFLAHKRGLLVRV
Text: (§1) To evaluate IC50 values for the inhibition of human MAO-A and MAO-B by newly synthesized compounds the commercially available recombinant human enzymes expressed in insect cells were used (Sigma-Aldrich). The MAO inhibition assay was based on the method described by Anderson et al., 1993 and Chimenti et al. with some modifications. The Amplex Red MAO Kit tyramine (Sigma-Aldrich) affords a suitable fluorimetric method to evaluate MAO enzyme action of synthetic and natural compounds. In the assay, MAO reacts with p-tyramine, a common substrate for both MAO isoforms, ensuing in the production of H2O2, which is identified by a fluorimetric method (λex = 530/λem = 585 nm). Each test well contained 0.1 mL of sodium phosphate buffer (0.05 M, pH 7.4), a range of concentrations of the eugenol based derivatives or reference compounds along with recombinant hMAO-A or hMAO-B in appropriate quantity. After the preparation of this mixture the wells were subjected to incubation for 15 min at 37 °C, placed in the dark fluorimeter chamber. Once this incubation period over, the process was rendered by mixing 200 µM Amplex Red reagent (Sigma-Aldrich), 1 U/mL horseradish peroxidase (Sigma-Aldrich) and p-tyramine (Sigma-Aldrich). Subsequently, the formation of hydrogen peroxide exerted by MAO isoforms was quantified by using Amplex-Red reagent, a non-fluorescent probe that reacts with H2O2 in the existence of horse radish peroxidase to generate the fluorescent component resorufin. Moreover, the control analysis was calculated in the absence of compound and reference inhibitors. The probability of compounds to change the fluorescence produced in the reaction mix due to non-enzymatic inhibition was assessed by mixing titled compounds to solutions of single Amplex Red reagent in a sodium phosphate buffer. Data were processed in Microsoft Excel, to calculate IC50 values.

hMAO-B [12] = biological target: T1, hMAO-B; conditions: eugenol from Rhizoma acori graminei; cited from earlier work
hMAO-A = biological target: T2, hMAO-A (Homo sapiens, UniProt P21397); test: Recombinant human MAO-A inhibition screening (Amplex Red, p-tyramine); type: biochemical
T2 construct: purchased Sigma-Aldrich; host or cells: insect cells (BTI-TN-5B14) infected with recombinant baculovirus
T2 sequence (P21397 1-527): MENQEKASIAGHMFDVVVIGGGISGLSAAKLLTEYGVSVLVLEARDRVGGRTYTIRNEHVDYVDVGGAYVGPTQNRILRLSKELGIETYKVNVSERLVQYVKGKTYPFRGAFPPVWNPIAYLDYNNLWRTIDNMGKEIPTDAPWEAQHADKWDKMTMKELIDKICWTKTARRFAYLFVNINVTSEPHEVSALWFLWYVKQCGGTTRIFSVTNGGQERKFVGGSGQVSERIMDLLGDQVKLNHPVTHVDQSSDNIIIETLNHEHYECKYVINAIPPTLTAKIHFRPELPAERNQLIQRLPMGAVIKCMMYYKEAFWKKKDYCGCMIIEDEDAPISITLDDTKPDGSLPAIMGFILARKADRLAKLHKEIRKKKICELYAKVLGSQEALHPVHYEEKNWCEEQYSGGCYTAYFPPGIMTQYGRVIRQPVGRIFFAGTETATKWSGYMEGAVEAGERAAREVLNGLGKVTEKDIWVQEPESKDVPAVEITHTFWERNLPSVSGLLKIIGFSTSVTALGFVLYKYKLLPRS
Text: as §1

Compound | IC50 (rat MAO-A [1]) | IC50 (rat MAO-B [2]) | Ki (rat MAO-A [3]) | Ki (rat MAO-B [4]) | also measured
COc1cc(C=O)ccc1O [Vanillin] | 17.88 ± 0.16 µM | 45.34 ± 0.09 µM | – | – | Observations in behavioral test (FST) (Swiss mouse): Controls: negative and positive (imipramine) The treatment reduced the spontaneous locomotion
C=CCc1ccc(O)c(-c2ccc(O)c(CC=C)c2)c1 [Honokiol] | – | – | 38.2 µM | 54.6 µM | –
C=CCc1ccc(O)c(-c2cc(CC=C)ccc2O)c1 [Magnolol] | – | – | 35.4 µM | 49.3 µM | –
CC1CCC(C(C)C)C(O)C1 (centres unmarked) [Menthol] | 23.1 ± 0.35 µM | 37.4 ± 0.76 µM | – | – | –
Cc1ccc(C(C)C)cc1O [Carvacrol] | 15.6 ± 0.49 µM | 23.42 ± 0.04 µM | – | – | –
COc1ccc(C(C)=O)c(O)c1 [Paeonol] | – | – | 51.1 µM | 54.6 µM | –
C=CCc1ccc(O)c(OC)c1 [Eugenol] | 5.34 ± 0.065 µM | 24 ± 1.32 µM | 25.7 µM | 79.9 µM | Forced swim test (FST) score (mice [5]): significantly increased; LD50 (mice [6]): 4500 mg/kg; Nitric oxide scavenging IC50 [7]: 11.724 ± 0.003 µg/mL; DPPH scavenging IC50 (DPPH scavenging activity): 10.29 ± 0.011 µg/mL; FRAP IC50 [8]: 10.627 ± 0.082 µg/mL; H2O2 scavenging IC50 [9]: 9.980 ± 0.012 µg/mL; Ki (human MAO-A): 25 µM; Immobility in the FST and tail suspension test (TST) (mice [10]): decreased immobility; Ki (MAO B): 211 µM; IC50 (hMAO-B [11]): 13.3 ± 0.037 µM; Ki (hMAO-B [12]): 15 µM; Selectivity index (hMAO-A; IC50 (MAO-A)/IC50 (MAO-B)): 1.24; IC50 (hMAO-A; recombinant hMAO-A, p-tyramine substrate, mean SEM): 16.54 ± 0.045 µM
C=CCc1ccc(OC)c(OC)c1 [Methyl-eugenol] | 7.12 ± 0.46 µM | 43.23 ± 0.054 µM | – | – | –
